According to patent publication US5470737A, “Stably-transformed cells expressing human thiopurine methyltransferase” (priority 1994, dated 1995):

What was measured:
[1] = biological target: T1, TPMT expressed in COS-1 cells transfected with T84 TPMT cDNA (Homo sapiens, UniProt P51580); experiment: Panel of methyltransferase inhibitors and ions, COS-1 cells transfected with T84 TPMT cDNA; type: biochemical
T1 construct: digested with SstI to excise the coding region, the 5'-untranslated region and a portion (ca. 600 nucleotides) of the 3'-untranslated region; expressed in transfected cells; host or cells: COS-1 (simian), vector P91023(B)
T1 sequence (P51580 1-245): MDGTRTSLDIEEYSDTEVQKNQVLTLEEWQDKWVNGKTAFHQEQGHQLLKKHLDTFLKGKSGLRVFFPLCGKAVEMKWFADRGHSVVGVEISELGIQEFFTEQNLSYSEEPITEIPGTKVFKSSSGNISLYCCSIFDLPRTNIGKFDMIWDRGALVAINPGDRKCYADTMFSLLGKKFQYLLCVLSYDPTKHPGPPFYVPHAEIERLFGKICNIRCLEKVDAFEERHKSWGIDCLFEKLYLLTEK
Experimental: TPMT activity in renal tissue was measured by the method of R. M. Weinshilboum et al., in Clin. Chim. Acta, 85, 323 (1978) as modified by L. C. Woodson et al., Biochem. Pharmacol., 32, 819 (1983) to assay the enzyme in human kidney preparations. […] Assay conditions for the measurement of TPMT in T84 human colon carcinoma cells and in COS-1 cells were identical with those used to measure the enzyme activity in human renal tissue. One unit of TPMT activity represented the formation of 1 nmol of 6-MMP per hr of incubation at 37° C.
Simian COS-1 cells were then plated in 100-mm dishes at a density of 1.5-1.8×10^6 cells/dish in DMEM with 10% fetal calf serum, and were allowed to grow overnight. Three dishes of cells were used for each transfection. Purified "sense" plasmid vector (0.5 μg) was mixed with DEAE-dextran and DMEM, and the mixture was added to the cell culture dishes, following the procedures of J. H. McCutchan et al., J. Natl. Cancer Inst., 41, 351 (1988) and R. J. Kaufman et al., Mol. Cell. Biol., 9, 946 (1989). Control cells were treated with no DNA, with expression vector alone, or with constructs that contained the cDNA clone in an antisense orientation. After 1 hr, the DNA-DEAE-dextran solution was replaced for 2 min with DMEM that contained 10% dimethylsulfoxide, followed by incubation for 2 hr in 0.1 mM chloroquine in DMEM following the procedure of H. Luthman et al., Nucl. Acids Res., 11, 1295 (1983). Cells were then grown for 40-42 hr in DMEM with 10% fetal calf serum. The cells from each transfection were harvested and pooled, cell pellets were washed in 5 ml of PBS, and the cell pellets were homogenized for 30 sec in 2 ml of 5 mM potassium phosphate buffer, pH 7.5. Homogenates were centrifuged at 15,000×g for 15 min at 4° C., supernatants from that step were centrifuged at 100,000×g for 1 hr at 4° C., and 0.25 μl aliquots of 100,000×g supernatant preparations were then assayed for transient expression of TPMT enzymatic activity.

[2] = biological target: T2, TPMT (Homo sapiens, UniProt P51580); experiment: Inhibition of TPMT, all sources of enzyme (summary in words); type: biochemical
T2 construct: T84 cDNA transiently expressed in COS-1 cells, plus native human kidney 100,000×g supernatant, partially purified kidney Peak I and T84 cell enzyme
T2 sequence (P51580 1-245): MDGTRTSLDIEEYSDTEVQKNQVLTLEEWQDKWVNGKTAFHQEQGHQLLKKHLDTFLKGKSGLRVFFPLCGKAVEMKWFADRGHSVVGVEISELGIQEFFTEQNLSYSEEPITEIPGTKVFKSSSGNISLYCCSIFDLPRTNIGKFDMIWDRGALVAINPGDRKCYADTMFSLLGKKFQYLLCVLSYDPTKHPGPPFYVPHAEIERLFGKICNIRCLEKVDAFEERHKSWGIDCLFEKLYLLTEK
Description: (§1) Finally, the response of the TPMT expressed in COS-1 cells to a panel of methyltransferase inhibitors and ions was compared with that of TPMT activity in human kidney 100,000×g supernatant, partially purified human kidney Peak I TPMT and T84 cell TPMT (Table 3).
As shown by the data in Table 3, the results were nearly identical for all sources of enzyme and each activity was inhibited by the TPMT reaction products, Ado-Hcy and 6-MMP. However, the enzyme was not affected by inhibitors of other methyltransferase enzymes.

[3] = biological target: T3, TPMT, human kidney 100,000×g supernatant (Homo sapiens, UniProt P51580); experiment: Panel of methyltransferase inhibitors and ions, human kidney 100,000×g supernatant; type: biochemical
T3 construct: renal tissue was homogenized in 5 mM potassium phosphate buffer, pH 7.5, with a Polytron homogenizer, and a 100,000×g supernatant was prepared; from tissue; host or cells: human kidney (renal tissue)
T3 sequence (P51580 1-245): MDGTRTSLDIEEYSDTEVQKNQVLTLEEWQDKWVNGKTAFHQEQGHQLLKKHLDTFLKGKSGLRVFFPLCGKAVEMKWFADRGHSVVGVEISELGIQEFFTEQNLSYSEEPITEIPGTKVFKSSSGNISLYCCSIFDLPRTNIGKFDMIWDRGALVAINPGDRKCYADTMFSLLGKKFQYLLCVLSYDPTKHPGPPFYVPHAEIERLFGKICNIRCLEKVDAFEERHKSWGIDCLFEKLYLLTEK
Experimental: Renal tissue was obtained either during autopsy or from patients undergoing clinically indicated nephrectomies. Hepatic tissue was obtained from patients who underwent clinically indicated partial hepatectomies for the removal of primary or metastatic hepatic tumors. All tissue was obtained under guidelines approved by the Mayo Clinic Institutional Review Board. Macroscopically normal tissue was stored at -80° C., conditions under which TPMT activity is stable (C. L. Szumlanski et al., Pharmacogenetics, 2, 148 (1992); J. A. Van Loon et al., Drug Met. Disposit., 18, 632 (1990)). Prior to enzyme purification, renal tissue was homogenized in 5 mM potassium phosphate buffer, pH 7.5, with a Polytron homogenizer, and a 100,000×g supernatant was prepared as described by L. C. Woodson et al., Biochem. Pharmacol., 32, 819 (1983). Amino acid sequence information was obtained with TPMT purified from human renal tissue--a tissue with a high specific activity for the enzyme.
(§2) TPMT activity in renal tissue was measured by the method of R. M. Weinshilboum et al., in Clin. Chim. Acta, 85, 323 (1978) as modified by L. C. Woodson et al., Biochem. Pharmacol., 32, 819 (1983) to assay the enzyme in human kidney preparations. […] Ado-Met as the methyl donor. Assay conditions for the measurement of TPMT in T84 human colon carcinoma cells and in COS-1 cells were identical with those used to measure the enzyme activity in human renal tissue. One unit of TPMT activity represented the formation of 1 nmol of 6-MMP per hr of incubation at 37° C.
as §1

[4] = biological target: T4, human kidney TPMT Peak I (Homo sapiens, UniProt P51580); experiment: Panel of methyltransferase inhibitors and ions, human kidney Peak I TPMT; type: biochemical
T4 construct: Human renal tissue contains two isoforms of TPMT, Peak I and Peak II, that can be separated by DEAE ion exchange chromatography; from tissue; host or cells: human kidney, DEAE Peak I, gel filtration
T4 sequence (P51580 1-245): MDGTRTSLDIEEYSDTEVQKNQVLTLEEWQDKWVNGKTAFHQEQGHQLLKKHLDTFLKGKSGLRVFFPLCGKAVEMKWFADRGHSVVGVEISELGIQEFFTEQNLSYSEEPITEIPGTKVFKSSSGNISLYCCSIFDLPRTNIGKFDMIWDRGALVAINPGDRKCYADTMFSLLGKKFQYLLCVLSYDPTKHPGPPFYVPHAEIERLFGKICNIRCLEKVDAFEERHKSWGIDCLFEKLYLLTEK
Description: Human renal tissue contains two isoforms of TPMT, Peak I and Peak II, that can be separated by DEAE ion exchange chromatography as reported by J. A. Van Loon et al., Biochem. Genet., 20, 637 (1982). The two isoforms were separated by DEAE ion exchange chromatography, and the Peak I enzyme was then purified by gel filtration chromatography performed with Sephadex G-100 superfine as described by J. A. Van Loon et al., cited above. In some experiments, hydroxylapatite chromatography performed as described by J. A. Van Loon et al., in Biochem. Pharmacol., 44, 775 (1992) was added as a third purification step.
as §2, §1

[5] = biological target: T5, T84 cell TPMT (Homo sapiens, UniProt P51580); experiment: Panel of methyltransferase inhibitors and ions, T84 cell 100,000×g supernatant; type: biochemical
T5 construct: Cytosol from T84 cells did contain TPMT enzymatic activity; host or cells: T84 human colon carcinoma cells
T5 sequence (P51580 1-245): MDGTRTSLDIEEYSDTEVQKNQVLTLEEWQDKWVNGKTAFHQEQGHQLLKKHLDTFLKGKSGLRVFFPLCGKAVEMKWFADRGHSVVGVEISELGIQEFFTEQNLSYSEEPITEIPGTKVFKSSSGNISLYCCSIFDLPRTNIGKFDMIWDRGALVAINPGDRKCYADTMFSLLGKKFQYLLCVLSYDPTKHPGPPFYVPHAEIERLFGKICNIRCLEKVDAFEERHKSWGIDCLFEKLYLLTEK
Experimental: as §2
T84 human colon carcinoma cells (American Type Culture Collection, Rockville, Md.) were grown to confluence in an equal volume mixture of Dulbecco's modified Eagle's medium (DMEM) and Ham's F12 media with 5% fetal calf serum. The cells were then harvested, cell pellets were washed in phosphate buffered saline (PBS), and the pellets were homogenized for 30 sec in 1 ml of 5 mM potassium phosphate buffer, pH 7.5, with a Polytron homogenizer. Homogenates of the cells were centrifuged at 100,000×g for 1 hr at 4° C., and the supernatant was used to assay TPMT activity and to determine selected biochemical properties of the enzyme.
as §1

[6] = biological target: T6, human kidney TPMT (Homo sapiens, UniProt P51580); conditions: read-out: Apparent Km value for Ado-Met; cited from earlier work
T6 construct: to assay the enzyme in human kidney preparations; host or cells: human kidney
T6 sequence (P51580 1-245): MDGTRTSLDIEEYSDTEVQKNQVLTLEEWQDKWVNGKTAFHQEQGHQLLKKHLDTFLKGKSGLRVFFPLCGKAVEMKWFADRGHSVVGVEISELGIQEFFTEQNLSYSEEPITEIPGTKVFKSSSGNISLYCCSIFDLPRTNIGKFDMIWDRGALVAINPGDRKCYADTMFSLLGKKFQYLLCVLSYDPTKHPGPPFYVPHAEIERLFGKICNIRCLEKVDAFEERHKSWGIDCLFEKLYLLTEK

[7] = test system: histamine N-methyltransferase (HNMT); conditions: cited from earlier work
[8] = read-out: Activity Remaining, %

CSc1ncnc2nc[nH]c12 [6-MMP, 6-methylmercaptopurine]
remaining activity at 5000 µM ([1]; COS-1 cells transfected with T84 TPMT cDNA, 5 mM): 29%
effect on TPMT activity (in words) [2]: inhibited
remaining activity at 5000 µM ([3]; human kidney 100,000×g supernatant, 5 mM): 26%
remaining activity at 5000 µM ([4]; human kidney TPMT Peak I, 5 mM): 30%
remaining activity at 5000 µM ([5]; T84 cell 100,000×g supernatant, 5 mM): 27%

Nc1ncnc2c1ncn2[C@@H]1O[C@H](CSCC[C@H](N)C(=O)O)[C@@H](O)[C@H]1O [Ado-Hcy, S-adenosyl-L-homocysteine]
remaining activity at 100 µM [1, 8]: 5%
effect on TPMT activity (in words) [2]: inhibited
remaining activity at 100 µM [3, 8]: 5%
remaining activity at 100 µM [4, 8]: 5%
remaining activity at 100 µM [5, 8]: 5%

C[S+](CC[C@H](N)C(=O)O)C[C@H]1O[C@@H](n2cnc3c(N)ncnc32)[C@H](O)[C@@H]1O (stereo partly drawn) [Ado-Met, S-adenosyl-L-methionine]
Km [6]: 2.7 µM

CCN(CC)Cc1cc(Nc2ccnc3cc(Cl)ccc23)ccc1O [Amodiaquine]
remaining activity at 1000 µM ([1]; COS-1 cells transfected with T84 TPMT cDNA, 1 mM, read-out: Activity Remaining, %): 95%
effect on TPMT activity (in words) [2]: not affected
inhibition of histamine N-methyltransferase (in words) [7]: an inhibitor of histamine N-methyltransferase
remaining activity at 1000 µM ([3]; human kidney 100,000×g supernatant, 1 mM, read-out: Activity Remaining, %): 97%
remaining activity at 1000 µM ([4]; human kidney TPMT Peak I, 1 mM, read-out: Activity Remaining, %): 90%
remaining activity at 1000 µM ([5]; T84 cell 100,000×g supernatant, 1 mM, read-out: Activity Remaining, %): 96%
